In brackets after ≈: the same amount, converted by molar mass.
Test system: Mycobacterium tuberculosis
Test: Antimycobacterial activity against isoniazid-resistant Mycobacterium tuberculosis H37Rv ATCC 27294 using alamar blue staining by broth microdilution assay
Type: functional

Compound	MIC [µg/mL]
Cc1cc(C2=NN(c3ccccc3)C(c3cccc([N+](=O)[O-])c3)C2)ccc1O (configuration not stated)	1.96 (≈ 5.25 µM)
Cc1cc(C2=NN(c3ccccc3)C(c3ccc(Cl)cc3)C2)ccc1O (configuration not stated)	1.24 (≈ 3.42 µM)
Cc1cc(C2=NN(c3ccccc3)C(c3ccccc3)C2)ccc1O (configuration not stated)	1.6 (≈ 4.87 µM)
Cc1cc(C2=NN(c3ccccc3)C(c3ccco3)C2)ccc1O (configuration not stated)	0.81 (≈ 2.54 µM)
Cc1cc(C2=NN(c3ccccc3)C(c3c(Cl)cccc3Cl)C2)ccc1O (configuration not stated)	0.92 (≈ 2.32 µM)
COc1ccc(C2CC(c3ccc(O)c(C)c3)=NN2c2ccccc2)cc1 (configuration not stated)	1.45 (≈ 4.05 µM)
NNC(=O)c1ccncc1 [ISONIAZID]	0.63 (≈ 4.59 µM)
Cc1cc(C2=NN(c3ccccc3)C(c3ccc(F)cc3)C2)ccc1O (configuration not stated)	0.62 (≈ 1.79 µM)
COc1cc(C2CC(c3ccc(O)c(C)c3)=NN2c2ccccc2)cc(OC)c1OC (configuration not stated)	1.86 (≈ 4.44 µM)
COc1ccc(C2CC(c3ccc(O)c(C)c3)=NN2c2ccccc2)cc1OC (configuration not stated)	1.16 (≈ 2.99 µM)
Cc1cc(C2=NN(c3ccccc3)C(c3ccc(N(C)C)cc3)C2)ccc1O (configuration not stated)	0.84 (≈ 2.26 µM)
Cc1cc(C2=NN(c3ccccc3)C(c3ccccc3Cl)C2)ccc1O (configuration not stated)	1 (≈ 2.76 µM)

From ChEMBL document CHEMBL3045115, “Synthesis and antimycobacterial activity of novel 4-[5-(substituted phenyl)-1-phenyl-4,5-dihydro-1H-3-pyrazolyl]-2-methylphenol derivatives” (2006)
